{"source": "ChEMBL document CHEMBL3393059", "about": "“Optimisation of in silico derived 2-aminobenzimidazole hits as unprecedented selective kappa opioid receptor agonists” (Bioorg Med Chem Lett, 2015)", "type_in_all_cases": "ADME, organism-based", "design_in_all_cases": "dose 30 mg/kg, route oral", "key": {"[1]": {"assay": "Cmax in mouse at 30 mg/kg, po", "conditions": "in vivo"}, "[2]": {"assay": "AUC (0 to time) in mouse at 30 mg/kg, po", "conditions": "plasma"}, "[3]": {"assay": "Half life in mouse at 30 mg/kg, po", "conditions": "in vivo"}}, "data": [{"smiles": "CN(C(=O)C(c1ccccc1)c1ccccc1)[C@H](CN1CC[C@H](O)C1)c1ccccc1", "note": "[ASIMADOLINE]", "values": [{"measurement": "Cmax", "setting": "[1]", "value": 507, "unit": "ng/mL"}, {"measurement": "AUC", "setting": "[2]", "value": 493, "unit": "ng·h/mL"}, {"measurement": "half-life", "setting": "[3]", "value": 30, "unit": "min"}]}]}
